The values below come from PMC6076408, “Differential modulation of human GABAC-ρ1 receptor by sulfur-containing compounds structurally related to taurine” (BMC Neuroscience, 2018).

What is called IC50 is the concentration that gives 50% inhibition. Usually EC50 stands for the concentration needed to bring the measured effect to its halfway point.

What all share (format): cell-based
Experiment [1] deals with T1, human GABAC-ρ1 receptor (Homo sapiens, UniProt P24046).
T1 construct: expressed in transfected cells; host or cells: Xenopus laevis oocytes (mRNA injection)
Nature of the experiment: Two-microelectrode voltage-clamp: currents activated by GABA or SCC-tau in oocytes expressing GABAC-ρ1R. The following applies: for Hill coefficient (nH) / EC50: agonist alone; for Hill coefficient (nH): dose-response relationship; for activation time of the currents (τact) / deactivation time (τdeac): currents activated by GABA, Hypo or Homo; for EC50: Xenopus laevis oocytes clamped at −60 mV. The procedure: (§1) All the animals were handled in accordance with guidelines of the National Institutes of Health Guide for Care and Use of Laboratory Animals and with the approval of the Institutional Animal Care and Use Committee of the National University of Mexico. We used Ethyl 3-aminobenzoate methanesulfonate (MS-222) at 0.17% for 30 min, to anesthetize the Xenopus laevis frogs. The oocytes were manually removed and enzymatically defolliculated at room temperature using collagenase type I (0.3 μg/μl) for 45 min. Later, oocytes were kept in Barth’s medium (in mM): 88, NaCl; 1, KCl; 0.33, […]; 0.41, CaCl2; 0.82, MgSO4; 2.4, NaHCO3; 5, HEPES; pH 7.4 and 0.1 mg/ml gentamicin sulfate. After 24 h, 0.5 μg/μl of human GABAC-ρ1R mRNA was injected in vegetal hemisphere of the oocyte, and electrophysiological recordings were obtained 2–3 days after injection.
Oocytes were placed in a chamber, with a volume of 500 μl, and impaled with two microelectrodes previously filled with 3 M KCl (0.5–2.5 MΩ) and clamped at − 60 mV. […] All recordings were done at 20–23 °C in a chamber continuously perfused at 5–10 ml/min of Ringer solution (in mM): 115, NaCl; 2, KCl; 1.8, CaCl2; 5, HEPES, pH 7.4. All drugs were purchased from SIGMA-ALDRICH (San Louis Missouri, USA). […] The pH of all solutions was adjusted to 7.4.
Results are reported as mean ± S.E. of the values obtained from several cells, each value being the average of measurements in different cells. Data from each experiment were collected from at least seven oocytes. Agonist concentration–response curves were constructed by measuring the maximum response evoked by each agonist concentration. […] The half-inhibitory concentration (IC50) of Homo was estimated by fitting the following equation: A=Amax/(1+10^[[agonist]-logEC50) . Differences among groups were statistically analyzed by ANOVA and Tukey–Kramer post-test, and were considered significant when P < 0.05. […] Differences between groups were statistically analyzed by ANOVA and a Tukey–Kramer post-test, and were considered significant at the level P < 0.05.

Experiment [2] has as its target T1, human GABAC-ρ1 receptor. Put plainly: Voltage-clamp: modulation of GABA-induced currents by co-applied SCC-tau. The following applies: for IC50: read-out: IC50 (decrease of GABA-activated current); for EC50: EC50 (potentiation of GABA current). The procedure:
as §1
(§2) Membrane currents elicited by GABA and SCC-tau were recorded using the two-microelectrode voltage-clamp technique. Oocytes were placed in a chamber, with a volume of 500 μl, and impaled with two microelectrodes previously filled with 3 M KCl (0.5–2.5 MΩ) and clamped at − 60 mV. […] All recordings were done at 20–23 °C in a chamber continuously perfused at 5–10 ml/min of Ringer solution (in mM): 115, NaCl; 2, KCl; 1.8, CaCl2; 5, HEPES, pH 7.4. All drugs were purchased from SIGMA-ALDRICH (San Louis Missouri, USA). […] The pH of all solutions was adjusted to 7.4.
(§3) Results are reported as mean ± S.E. of the values obtained from several cells, each value being the average of measurements in different cells. Data from each experiment were collected from at least seven oocytes. Agonist concentration–response curves were constructed by measuring the maximum response evoked by each agonist concentration. […] The half-inhibitory concentration (IC50) of Homo was estimated by fitting the following equation: A=Amax/(1+10^[[agonist]-logEC50) . Differences among groups were statistically analyzed by ANOVA and Tukey–Kramer post-test, and were considered significant when P < 0.05. Control responses to GABA were obtained before and after each drug application to account for possible shifts in the amplitude of the control current. To determine the time constants for the activation (τact) and deactivation (τdeac) of GABA-, Homo- and Hypo-currents responses, a decay function of the form: I(τ) = exp(− t/τ d) + C, where I is the current and t is time, was fit to the experimental data (Origin 6.0 software; Northampton, MA). Differences between groups were statistically analyzed by ANOVA and a Tukey–Kramer post-test, and were considered significant at the level P < 0.05.

Experiment [3] deals with T1, human GABAC-ρ1 receptor. Nature of the experiment: Voltage-clamp: inhibition of GABA- and SCC-tau-induced currents by TPMPA and picrotoxin. As to the method: as §1, §2, §3
[4] abbreviates: receptor activated by 3 µM GABA.
Where [5] appears, read: receptor activated by 70 µM Homo.
Setting [6] is: receptor activated by 3 mM Hypo.

T1 sequence (P24046 22-479): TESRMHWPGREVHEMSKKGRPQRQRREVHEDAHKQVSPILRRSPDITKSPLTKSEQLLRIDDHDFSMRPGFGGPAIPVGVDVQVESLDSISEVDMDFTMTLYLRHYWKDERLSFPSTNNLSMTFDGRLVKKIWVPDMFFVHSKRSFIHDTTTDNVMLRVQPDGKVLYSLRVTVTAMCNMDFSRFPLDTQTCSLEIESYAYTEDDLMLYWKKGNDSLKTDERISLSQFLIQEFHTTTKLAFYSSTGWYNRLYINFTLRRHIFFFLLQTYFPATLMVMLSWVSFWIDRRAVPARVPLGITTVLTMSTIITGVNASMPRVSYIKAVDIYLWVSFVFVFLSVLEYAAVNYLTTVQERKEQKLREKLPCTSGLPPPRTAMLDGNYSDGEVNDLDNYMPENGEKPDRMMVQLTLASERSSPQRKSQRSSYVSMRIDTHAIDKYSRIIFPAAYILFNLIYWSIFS

As for `NCCCC(=O)O` [GABA, γ-aminobutyric acid], on human GABAC-ρ1 receptor [1], the “Hill coefficient (nH)” value is reported as 1.5, the “activation time of the currents (τact)” value is 1 ± 0.2 min and the “deactivation time (τdeac)” value was found to be 1.7 ± 0.5 min.

As for `NCCCS(=O)(=O)O` [Homo, 3-Aminopropane-1-sulfonic acid], at human GABAC-ρ1 receptor [2] (co-applied with 1.5 µM GABA), the IC50 is 40 ± 1 µM. On human GABAC-ρ1 receptor [2] (co-applied with 3 µM GABA), the IC50 is 90 ± 1.5 µM. Moreover, the IC50 at human GABAC-ρ1 receptor [2] (co-applied with 6 µM GABA) stood at 410 ± 2.9 µM. Moreover, on human GABAC-ρ1 receptor [1], the “Hill coefficient (nH)” value came to 1.0, the EC50 worked out at 70 ± 1.1 µM, the “activation time of the currents (τact)” value is recorded as 1.8 ± 0.2 min and the “deactivation time (τdeac)” value stood at 6.7 ± 2.2 min.

Take `NCCS(=O)O` [Hypo, 2-Aminoethanesulfinic acid]: the EC50 at human GABAC-ρ1 receptor [2] (co-applied with 1.5 µM GABA) is 87 ± 1.5 µM. For the same molecule, on human GABAC-ρ1 receptor [2] (co-applied with 3 µM GABA), the EC50 stood at 170 ± 1.7 µM. Besides, on human GABAC-ρ1 receptor [2] (co-applied with 6 µM GABA), the EC50 came to 480 ± 2.1 µM. Besides, on human GABAC-ρ1 receptor [1], the “Hill coefficient (nH)” value is given as 2.2, it took 3000 ± 1500 µM to reach a half-maximal effect (EC50), the “activation time of the currents (τact)” value is 1.5 ± 0.1 min and the “deactivation time (τdeac)” value is listed as 3.4 ± 1.1 min.

For `O=S(=O)(O)CCO` [IA, 2-hydroxyethanesulfonic acid], the “effect on GABA-induced currents” value on human GABAC-ρ1 receptor [2] (co-application with GABA, data not shown) was “did not observe any effect”. In addition, the “activation of current (effect on receptor)” value at human GABAC-ρ1 receptor [1] (compound perfused alone at the concentrations tested) is given as “did not show any affect”.

For `CP(=O)(O)C1=CCNCC1` [TPMPA, Methyl(1,2,5,6-tetrahydropyridine-4-yl) phosphinic acid], the IC50 was determined as 1.2 ± 0.1 µM at human GABAC-ρ1 receptor [3] (setting [4]), 1.4 ± 0.1 µM against human GABAC-ρ1 receptor [3] (setting [5]) and 2 ± 0.2 µM against human GABAC-ρ1 receptor [3] (setting [6]).

Turning to picrotoxin, the values for the IC50 against human GABAC-ρ1 receptor [3] (setting [4]), at human GABAC-ρ1 receptor [3] (setting [5]) and at human GABAC-ρ1 receptor [3] (setting [6]) were 100 ± 0.1 µM, 105 ± 0.3 µM and 100 ± 0.8 µM, respectively.
